What was measured:
fixed cells = test: Fixed cell imaging: monitoring decrease in proximal phosphorylation; assay type: cell-based; details: 22 nM, pre-treatment prior to cell fixation
Method: (3 h prior to fixation, media was removed and 22 nM of Staurosporine (BioShop, cat. STA001) solution in fresh media was added and incubated at 37° C., 5% CO2 for 3 h).

[1] = Titration of compound with GaCl3 at different pH (fluorescence at 376 nm); assay type: binding; details: 40 μM compound
Method: GaCl3 was titrated into 40 μM (constant) of compound 2 from 500 to 0.25 μM at pH 4.5 (50 mM NaOAc) and 7.5 (HEPES). Fluorescence intensity was measured at 376 and 476 nm at 350 nm excitation. […] At pH 4.5 saturation is observed at 10 μM of GaCl3.
40 μM of compound 3 was titrated with GaCl3 (250-0.12 μM) and the change in emission at 376 nm was recorded upon excitation at 350 nm as shown in FIG. 48.

[2] = tested on: MRC-9 and A549 cell lines; test: Fixed cell imaging: monitoring increase in proximal phosphorylation; assay type: cell-based, human; details: pre-treatment before fixation
MRC-9 cells = test: Fixed cell imaging; assay type: cell-based, human
Method: MRC-9 cells were plated on an 8-chamber tissue culture treated glass slide (BD Falcon; 40,000 cells/chamber) and cultured for two days at 37° C., 5% CO2. Media was removed and cells were incubated with 200 μL of 3.4% formaldehyde solution in 1×PBS for 10 min. Cells were washed 3×3 min with PBS and stored in PBS at 4° C. until staining. Cells were washed 3× with 50 mM HEPES and incubated in 40 μM solution of compound 1 in complex with Zn^2+ (triflate salt) dissolved in 50 mM HEPES, 75 mM NaCl, 10% DMSO for 1 h. Cells were rinsed 2× with 50 mM HEPES and mounted with a mounting solution and a cover slip.

[3] = tested on: proximally phosphorylated peptides; test: Detection of proximally phosphorylated peptides in aqueous solution (384 well plate, emission 476 nm); assay type: binding
Method: In one example 40 μM of compound 1 pre-metallated with zinc(II) triflate (referred to as “Zn^2+ pre-metallation” in FIG. 13; procedure described in example) was titrated with 80-0.04 μM of pY and pYpY peptides in 50 mM HEPES pH 7.5, 5% DMSO. In another example, 40 μM of compound 1 was dissolved in 50 mM HEPES pH 7.5, 5% DMSO, which contained 40 μM of zinc(II) triflate (referred to as “in situ Zn^2+ metallation” in FIG. 13) and was titrated with 80-0.04 μM of pY and pYpY peptides. Fluorescence measurements were performed as described in Example 2.
(§1) Various conditions for the detection of proximally phosphorylated peptides and proteins in aqueous solution are shown in Table 1. For the screens, analytes (peptides) were dissolved in a specific buffer at various concentrations (normally 100 μM to 40 nM), and combined with 40 μM of compound 1 in complex with Zn^2+ (triflate salt) dissolved in the same buffer on a 384 well flat bottom black plate. The mixture was incubated for 20 minutes and fluorescence emission intensity at 476 nm (10-20 nm bandwidth) was measured using a Tecan M1000 microplate reader, upon excitation at 350 nm (5 nm bandwidth) at 400 Hz. The different conditions tested were assessed based on the ratios of signal intensity of positive to negative control analytes and signal intensity in general.
Peptides containing two phosphotyrosine residues, spaced by 2-5 alanine residues, were titrated into 40 μM solution of compound 1 in complex with Zn^2+ (triflate salt) (pH 7.5 50 mM HEPES, 10% propylene, 25 mM NaCl) from 80 μM to 40 nM (FIG. 16). Y-axis is Δ Fluorescence Intensity as defined by the formula in example 2.
Using the same methods as described in Example 6, Zn^2+ (triflate salt) complexes of compounds 1, compound 9, compound 15, compound 14 were tested in pH 7.5, 50 mM HEPES, 25 mM NaCl, 10% propylene glycol.
Using the same methods as described in Example 6, Zn^2+ (triflate salt) complexes of compound 1 and compound 12 were tested in pH 7.5, 50 mM HEPES, 5% DMSO.

[4] = tested on: proximally phosphorylated proteins (α-casein, β-casein and D-α-casein); test: In-solution detection of proteins; assay type: binding, Bos taurus; details: Zn^2+ (triflate salt) complexes; pH 7.5, 50 mM HEPES, 75 mM NaCl, 20% DMSO
Text: Non-phosphorylated (BSA and lysozyme) and distally phosphorylated negative control proteins (ovalbumin) were used in detection methods for in-solution, on gel and on blot applications. Dephosphorylated α-casein (D-α-casein), β-casein and α-casein served as proximally phosphorylated positive controls (see Table 2). The phosphosites presented in Table 2 were obtained from the PhosphoSitePlus database or a UniProt database.
as §1, with “proteins” for “peptides”, “3. Proteins” for “1. For the screens, analytes (peptides)”, “a” for “a specific”, “general. Among the parameters assessed in this study and using these specific control proteins, the following conditions were selected for proteins studies: pH 5.5 50 mM NaOAc, 50 mM NaCl, 5% DMSO (see FIG. 27). […] Depending on the number of proximally di-phosphorylated sites, lower detection limits could be achieved by using lower concentration of a sensor.” for “general.”
Using same methods as described in Example 1.1c, Zn^2+ (triflate salt) complexes of compounds 1 (top left), compound 9 (top right), compound 15 (middle left), and compound 14 (middle right) were tested in pH 7.5, 50 mM HEPES, 75 mM NaCl, 20% DMSO (see FIG. 28).
Using same methods as described in Example 14, 40 and 20 μM of Zn^2+ (triflate salt) complexes of compound 1 (top) and compound 12 (bottom) (FIG. 29), were tested in pH 7.5, 50 mM HEPES, 5% DMSO.
Using same methods as described above, 60, 40, 20 and 10 μM of Zn^2+ (triflate salt) complexed with compound 12 (FIG. 30), were titrated with 80-0.04 μM of proteins in pH 7.5, 50 mM HEPES, 5% DMSO.

β-casein = biological target: T1, β-casein (Bos taurus, UniProt P02666); test: On-gel detection of proximally phosphorylated protein using GaCl3 complexes; assay type: binding
T1 construct: purchased Sigma Aldrich C6905-250MG
T1 sequence (P02666 16-224): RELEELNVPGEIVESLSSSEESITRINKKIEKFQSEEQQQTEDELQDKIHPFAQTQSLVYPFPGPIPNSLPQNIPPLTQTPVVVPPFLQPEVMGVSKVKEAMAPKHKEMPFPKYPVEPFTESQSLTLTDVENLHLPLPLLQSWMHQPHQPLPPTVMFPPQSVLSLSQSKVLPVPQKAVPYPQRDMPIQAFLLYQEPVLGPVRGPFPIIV
Method: (§2) Compound 8 was dissolved in 50 mM NaOAc buffer, pH 4.5, 50 mM NaCl, 10% DMSO and combined with 80, 160 or and 240 μM GaCl3 solutions. Each gel contained 4 lanes with equal amounts of BSA, ovalbumin (Ova), β-casein (β-cas) and lysozyme (Lyso) in each lane (left to right: 1, 0.5, 0.25 and 0.125 μg per protein per lane) (see FIG. 37). Gels were stained for 1 h with the sensor solution. Gels were first de-stained with 50 mM NaOAc buffer pH 4.5 for 2 h and then with 50 mM NaOAc buffer pH 4.0 20% acetonitrile for 40 h.
(§3) Compound 8 was dissolved in 100 mM NaOAc buffer, pH 4.5, 150 mM NaCl, 20% propylene glycol and combined with 10 and 15 μM GaCl3 solutions. Each gel contained 4 lanes with equal amounts of BSA, ovalbumin (Ova), β-casein (β-cas) and lysozyme (Lyso) in each lane (FIG. 40) left to right: 1, 0.5, 0.25 and 0.125 μg per protein per lane). Gels were stained for 1.5 h with the sensor solution. Destaining was performed for variable time (specified at the top) with 50 mM NaOAc, pH 4.0, 20% acetonitrile. Gels were rinsed with MiliQ water for 5 min prior to imaging. Images were acquired using ChemiDoc MP, using a 530 nm emission filter and UV trans excitation.
as §2, with “Compound 2” for “Compound 8”, “lane) (FIG. 42).” for “lane) (see FIG. 37).”, “h. […] However with the increased destaining time the intensity of β-casein band relative to other proteins was increasing, resulting in a 6.7-fold higher intensity over the distally phosphorylated protein ovalbumin. Lane containing 1 μg of each protein was analyzed (FIG. 43).” for “h.”
as §3, with “2” for “8”, “45)” for “40)”, “acetonitrile (see FIGS. 45 and 46).” for “acetonitrile.”

[5] = 100 mM NaOAc pH 4.5, 150 mM NaCl, 20% propylene glycol, destain 50 mM NaOAc, pH 4.0, 20% acetonitrile

With CN[C@@H]1C[C@H]2O[C@@](C)([C@@H]1OC)n1c3ccccc3c3c4c(c5c6ccccc6n2c5c31)C(=O)NC4 [staurosporine] the “fluorescence intensity of compound 1-Zn^2+ complex compared to untreated control” value (fixed cells) was “time-dependent decrease”.
For O=C(O)CN1CCN(CCCCc2ccc3ccc4cccc5ccc2c3c45)CCN(CC(=O)O)CCN(CC(=O)O)CC1 [compound 3, 2,2′,2″-(10-(4-(pyren-1-yl)butyl)-1,4,7,10-tetraazacyclododecane-1,4,7-triyl)triacetic acid], the “concentrations at which Ga^3+-compound complex formation was observed” value ([1]; pH 5.5 and 4.5, 50 mM NaOAc) was “single-digit”.
With IL-6: a JAK2 pathway-inducing agent the “fluorescent signal from compound 1-Zn^2+ in pre-treated cells” value [2] was “significantly increased”.
For c1cc2ccc3ccc(CN4CCNCCNCCNCC4)c4ccc(c1)c2c34 [compound 1, 1-(Pyren-1-methyl)-1,4,7,10-tetraazacyclododecane], the “intracellular fluorescence, metallated vs non-metallated” value (MRC-9 cells) was “only compound 1-Zn^2+ complex, is capable of inducing intracellular fluorescence”, the “signal with mono-phosphorylated or non-phosphorylated peptides” value ([3]; Zn^2+ triflate complex, 40 μM) was “did not produce a significant signal” and the “efficiency at detecting the proximally phosphorylated proteins” value [4] was “comparable efficiency”.
In the case of O=C(O)CN(CC(=O)O)c1ccccc1OCCOc1cc(NC(=O)CCCc2ccc3ccc4cccc5ccc2c3c45)ccc1N(CC(=O)O)CC(=O)O [compound 2, 2,2′-((2-(2-(2-(bis(carboxymethyl)amino)-5-(4-(pyren-1-yl)butanamido)phenoxy)ethoxy)phenyl)azanediyl)diacetic acid], the “GaCl3 concentration at which saturation is observed” value ([1]; pH 4.5 (50 mM NaOAc)) is reported as 10 µM, the “saturation at higher concentration of GaCl3” value ([1]; pH 7.5 (HEPES)) is reported as “saturation was not observed” and the “selectivity for β-casein after 2 h destaining” value (β-casein; 80 μM compound, 1:1 GaCl3, stained 1 h) is reported as “did not result in the selective staining”. For the same compound, the “β-casein over distally phosphorylated ovalbumin” value (β-casein; 80 μM compound, 1:1 GaCl3, stained 1 h, 40 h destaining, 1 μg per protein) was 6.7 fold, the “selectivity for β-casein with more than 1:1 equivalent of compound:GaCl3” value (β-casein; 50 mM NaOAc pH 4.5, 50 mM NaCl, 10% DMSO, 160 or 240 μM GaCl3) was “did not result in good selectivity” and the “selective staining for β-casein, no destaining” value (β-casein; 100 mM NaOAc pH 4.5, 150 mM NaCl, 20% propylene glycol, 1:1 and 1:1.5 compound:GaCl3, stained 1.5 h) was “did not result in selective staining”. The “staining of β-casein band following 16 h destain” value (β-casein; [5]) was “most prominently stained band” and the “β-casein signal over distally phosphorylated ovalbumin following 16 h destain” value (β-casein; [5]) was 10 fold.
For c1cc2ccc3ccc(CCCCN4CCNCCNCCNCC4)c4ccc(c1)c2c34 [compound 9, 1-(4-(pyren-1-yl)butyl)-1,4,7,10-tetraazacyclododecane], the “sensitivity for peptides in which the two phosphorylated tyrosine residues are more spaced out, vs compound 1” value ([3]; Zn^2+ (triflate salt) complexes, pH 7.5, 50 mM HEPES, 25 mM NaCl, 10% propylene glycol) was “increased” and the “efficiency at detecting the proximally phosphorylated proteins” value [4] was “comparable efficiency”.

Source: US10889554B2, “Excimer forming compounds” (THE GOVERNING COUNCIL OF THE UNIVERSITY OF TORONTO, priority 2013, dated 2021)
